Legend:
[1] = test system: human whole blood; assay: Human whole blood bioassay of LTB4, 5-HETE and AA production; assay type: cell-based; conditions: human whole blood; data not shown
Description: The results are for the effects of these two FLAP inhibitors on LTB4 production and 5-HETE production. It is known that indole-acetic acid FLAP inhibitors like MK-886, MK-591 display high plasma protein binding. Thus, the potencies of these FLAP inhibitors for blocking leukotrienes in vivo are about 100 fold higher than the affinity of the inhibitors for FLAP binding. The inventors developed a bioassay that closely predicts the in vivo potency of FLAP inhibitors using human whole blood. Briefly, whole blood is incubated with a calcium ionophore like […] or zymosan in the absence or presence of increasing concentrations of a FLAP inhibitor. After incubation at 37° C. for 30 minutes, the samples are centrifuged and the plasma supernatant is subjected to reverse phase liquid chromatography coupled to tandem mass spectrometry to quantify levels of LTB4, 5-HETE, and AA production. Drug IC50 values are determined by non-linear regression analysis (GraphPad Prism).). […] As FLAP inhibitors are poorly water soluble drugs, the inventors have shown that such hydrophobic drugs can be formulated in a carrier comprising one or more vegetable oils, such as olive oil, and phosphatidylserine that are found on the Generally Accepted as Safe (GRAS) list and that such drugs can then be rapidly delivered and targeted to the brain and upper spinal cord. Hanson L R, et al, Drug Delivery 19(3):149-54, 2012.

[2] = cited from earlier work
[3] = test system: rats subjected to FPI (TBI model); assay: Volume of cell death 72 hours after TBI (rat FPI); assay type: in vivo; conditions: 6 mg/kg IV 30 minutes prior to TBI; measured 72 hours later
Method: Craniotomy and lateral fluid percussion injury (FPI) were performed using a previously validated and published procedure. Farias S, et al. J. Neurotraum, 26, 1977-1986, 2009; Frey L. C. et al. J. Neurosci. Methods 177, 267-272, 2009. Throughout the specification animals subjected to this protocol are referred to as having a TBI since this treatment protocol is a TBI model. Briefly, rats were anesthetized with 3-5% isoflurane, isosol, VEDCO Inc., St. Joseph, Mo., via nose cone and mounted in a stereotaxic head frame. A 3 millimeter (mm) craniotomy was created and centered at 3 mm caudal to bregma and 3.5 mm left of the sagittal suture, keeping the exposed dura intact. One steel support screw was embedded in the skull on the contralateral side. A Luer-Lock hub with an inside diameter of 3.5 mm was centered over the craniotomy and bonded to the skull with cyanoacrylate adhesive and capped. Dental acrylic, Snap, Parka, Inc., Edgewood, N.J., was poured around the huh and screw. After the acrylic hardened antibiotic ointment was applied around the cap and the animals were returned to their cages. […] Moistened food pellets were provided after injury, and all animals were monitored daily for well-being and weight changes. […]
Rats were administered a single-dose of the FLAP inhibitor MK-886, 6 mg/kg IV by tail vein, 30 minutes prior to TBI. […] Results are expressed as the average±SEM. […]

For CC(C)c1ccc2c(c1)c(SC(C)(C)C)c(CC(C)(C)C(=O)O)n2Cc1ccc(Cl)cc1 [MK-886, 1-[(4-Chlorophenyl)methyl]-3-[(1,1-dimethylethyl)thio]-α,α-dimethyl-5-(1-methylethyl)-1H-Indole-2-propanoic acid], the AA production [1] is given as “neither of the FLAP inhibitors effected AA production”, the plasma protein binding [2] is given as “high” and the “cell death induced by TBI” value [3] is given as “significant reductions in cell death”.

Reference: patent US10080748B2, “Use of flap inhibitors to reduce neuroinflammation mediated injury in the central nervous system” (Bioscience Pharma Partners, LLC, priority 2014, dated 2018)
